Reference: patent publication US12404250B2, “PARP inhibitors for treating cancer and asthma” (Oregon Health & Science University, priority 2018, dated 2025)

Columns and labels:
[1] = biological target: T1, PARP4 Brct-cat (Homo sapiens, UniProt Q9UKK3); test: In vitro IC50, PARP4 Brct-cat; type: biochemical; conditions: SEM from a minimum of three dose-response experiments
T1 construct: PARP4 Brct-cat
T1 sequence (Q9UKK3 1-573 limits assumed): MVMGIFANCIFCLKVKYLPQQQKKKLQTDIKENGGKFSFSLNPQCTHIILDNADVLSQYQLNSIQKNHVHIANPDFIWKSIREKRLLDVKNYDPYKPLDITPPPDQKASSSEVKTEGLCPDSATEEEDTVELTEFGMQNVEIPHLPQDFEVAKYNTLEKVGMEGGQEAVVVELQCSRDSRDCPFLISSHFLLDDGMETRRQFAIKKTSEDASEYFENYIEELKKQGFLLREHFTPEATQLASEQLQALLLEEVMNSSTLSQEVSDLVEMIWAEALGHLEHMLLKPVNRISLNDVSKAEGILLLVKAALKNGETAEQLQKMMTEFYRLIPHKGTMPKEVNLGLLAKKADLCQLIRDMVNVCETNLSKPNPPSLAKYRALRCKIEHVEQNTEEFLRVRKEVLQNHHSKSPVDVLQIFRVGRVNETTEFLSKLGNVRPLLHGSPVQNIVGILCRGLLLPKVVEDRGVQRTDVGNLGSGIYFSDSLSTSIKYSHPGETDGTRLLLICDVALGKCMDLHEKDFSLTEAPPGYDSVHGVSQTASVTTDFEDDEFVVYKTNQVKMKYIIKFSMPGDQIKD

[2] = biological target: T2, PARP8 (Homo sapiens, UniProt Q8N3A8); test: In vitro IC50, immunoprecipitated GFP-PARP8 auto-MARylation; type: biochemical
T2 construct: expressed in transfected cells; host or cells: HEK 293T
T2 sequence (Q8N3A8 1-854): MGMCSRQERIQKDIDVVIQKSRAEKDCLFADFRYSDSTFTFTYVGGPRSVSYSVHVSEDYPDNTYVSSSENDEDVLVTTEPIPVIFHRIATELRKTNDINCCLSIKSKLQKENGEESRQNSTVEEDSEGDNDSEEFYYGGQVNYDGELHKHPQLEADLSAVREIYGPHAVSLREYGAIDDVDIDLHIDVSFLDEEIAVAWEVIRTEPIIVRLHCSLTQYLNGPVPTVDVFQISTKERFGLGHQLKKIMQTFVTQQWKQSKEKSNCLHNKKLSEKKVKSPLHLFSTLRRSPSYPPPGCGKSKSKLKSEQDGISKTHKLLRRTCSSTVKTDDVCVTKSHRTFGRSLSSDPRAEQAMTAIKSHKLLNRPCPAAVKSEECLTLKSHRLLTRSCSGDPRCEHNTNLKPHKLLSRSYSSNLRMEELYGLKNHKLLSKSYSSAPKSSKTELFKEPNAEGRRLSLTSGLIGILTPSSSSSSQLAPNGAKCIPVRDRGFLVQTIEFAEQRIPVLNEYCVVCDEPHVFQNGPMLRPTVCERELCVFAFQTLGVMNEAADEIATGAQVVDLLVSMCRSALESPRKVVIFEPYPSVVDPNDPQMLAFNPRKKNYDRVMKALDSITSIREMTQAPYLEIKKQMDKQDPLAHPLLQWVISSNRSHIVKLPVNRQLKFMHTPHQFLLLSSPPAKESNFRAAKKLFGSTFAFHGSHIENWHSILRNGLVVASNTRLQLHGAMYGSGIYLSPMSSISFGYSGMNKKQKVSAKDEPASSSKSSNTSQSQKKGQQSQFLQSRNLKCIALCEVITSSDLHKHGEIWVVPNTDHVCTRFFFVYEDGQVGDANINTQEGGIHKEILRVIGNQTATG
Description: (§1) Auto-MARylation was analyzed by Western blot with an ADP-ribose (ADPr) binding reagent (uncropped blots shown below).

[3] = biological target: T3, PARP11 (Homo sapiens, UniProt Q9NR21); test: In vitro IC50, PARP11 (plate assay, MARylation of SRPK2 and NXF1); type: biochemical; conditions: SEM from a minimum of three dose-response experiments
T3 sequence (Q9NR21 1-338): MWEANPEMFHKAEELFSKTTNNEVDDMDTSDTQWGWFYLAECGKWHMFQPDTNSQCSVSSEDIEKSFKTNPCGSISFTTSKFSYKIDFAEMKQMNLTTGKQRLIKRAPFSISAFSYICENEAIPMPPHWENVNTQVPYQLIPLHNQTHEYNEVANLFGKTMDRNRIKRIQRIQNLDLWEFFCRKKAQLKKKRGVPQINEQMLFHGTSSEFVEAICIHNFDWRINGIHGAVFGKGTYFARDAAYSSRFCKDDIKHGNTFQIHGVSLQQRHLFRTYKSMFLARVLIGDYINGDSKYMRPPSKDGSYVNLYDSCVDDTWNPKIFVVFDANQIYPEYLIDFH
From the text: Curves generated using Prism 7 (Graph Pad); error bars indicate ±SEM from at least two replicates.

[4] = biological target: PARP 1 (Homo sapiens, UniProt P09874); test: In vitro IC50, PARP1; type: biochemical; conditions: SEM from a minimum of three dose-response experiments
[5] = biological target: PARP 2 (Homo sapiens, UniProt Q9UGN5); test: In vitro IC50, PARP2; type: biochemical; conditions: SEM from a minimum of three dose-response experiments
[6] = biological target: T4, PARP16 (Homo sapiens, UniProt Q8N5Y8); test: In vitro IC50, immunoprecipitated GFP-PARP16 auto-MARylation; type: biochemical
T4 construct: expressed in transfected cells; host or cells: HEK 293T
T4 sequence (Q8N5Y8 1-322): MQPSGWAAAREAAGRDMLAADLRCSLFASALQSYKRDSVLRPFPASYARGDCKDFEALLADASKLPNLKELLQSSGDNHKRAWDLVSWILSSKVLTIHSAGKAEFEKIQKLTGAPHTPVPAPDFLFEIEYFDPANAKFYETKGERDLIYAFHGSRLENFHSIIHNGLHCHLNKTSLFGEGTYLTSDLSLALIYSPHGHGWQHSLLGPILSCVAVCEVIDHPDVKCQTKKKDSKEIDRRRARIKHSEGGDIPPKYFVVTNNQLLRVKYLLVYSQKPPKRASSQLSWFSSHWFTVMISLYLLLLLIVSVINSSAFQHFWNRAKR
Description: as §1

[7] = biological target: T5, PARP1/2 (Homo sapiens, UniProt P09874); test: H2O2-stimulated PARP1/2 activity in HEK 293T cells (Western blot); type: cell-based; conditions: H2O2 500 μM for 15 min, Western blot with ADPr binding reagent
T5 construct: expressed in transfected cells; host or cells: HEK 293T
Description: Lysates were prepared and PAR/MARylation was analyzed by Western blot with an ADP-ribose (ADPr) binding reagent. Blot was also probed with antibodies for GFP and actin. The band of interest represents auto-PARylated GFP-PARP1. […] Lysates were prepared and PAR/MARylation was analyzed by Western blot with an ADP-ribose (ADPr) binding reagent. Blot was also probed with antibodies for GFP and actin.
Lysates were prepared and PAR/MARylation was analyzed by Western blot with an ADP-ribose (ADPr) binding reagent. Blot was also probed with antibodies for GFP and actin. The band of interest represents auto-PARylated GFP-PARP1.

[8] = biological target: T6, GFP-PARP11 (Homo sapiens, UniProt Q9NR21); test: GFP-PARP11 localization at the nuclear envelope in HeLa cells; type: cell-based; conditions: HeLa cells transfected with GFP-PARP11, 1 μM for 1 or 18 h
T6 construct: expressed in transfected cells; host or cells: HeLa
T6 sequence (Q9NR21 1-338): T3 sequence (Q9NR21 1-338)
Description: FIGS. 5A and 5B depict dissociation from the nuclear envelope in HeLa cells following ITK7 (Example 7) treatment. […] HeLa cells were transfected with GFP-PARP11 grown on glass cover-slips. After ITK7 (1 μM) treatment for 1 or 18 h cells were fixed and mounted using mounting medium containing DAPI. Images were taken on the Olympus FLUOVIEW™ 2000 microscope using an 60x/NA 1.40 oil objective (scale bar 10 μm).
HeLa cells were transfected with GFP-PARP11 grown on glass cover-slips. After ITK7 (1 μM) treatment for 1 or 18 h cells were fixed and mounted using mounting medium containing DAPI. Images were taken on the Olympus FLUOVIEW™ 2000 microscope using an 60x/NA 1.40 oil objective (scale bar 10 μm).

Sequence of PARP 1 (P09874 whole entry): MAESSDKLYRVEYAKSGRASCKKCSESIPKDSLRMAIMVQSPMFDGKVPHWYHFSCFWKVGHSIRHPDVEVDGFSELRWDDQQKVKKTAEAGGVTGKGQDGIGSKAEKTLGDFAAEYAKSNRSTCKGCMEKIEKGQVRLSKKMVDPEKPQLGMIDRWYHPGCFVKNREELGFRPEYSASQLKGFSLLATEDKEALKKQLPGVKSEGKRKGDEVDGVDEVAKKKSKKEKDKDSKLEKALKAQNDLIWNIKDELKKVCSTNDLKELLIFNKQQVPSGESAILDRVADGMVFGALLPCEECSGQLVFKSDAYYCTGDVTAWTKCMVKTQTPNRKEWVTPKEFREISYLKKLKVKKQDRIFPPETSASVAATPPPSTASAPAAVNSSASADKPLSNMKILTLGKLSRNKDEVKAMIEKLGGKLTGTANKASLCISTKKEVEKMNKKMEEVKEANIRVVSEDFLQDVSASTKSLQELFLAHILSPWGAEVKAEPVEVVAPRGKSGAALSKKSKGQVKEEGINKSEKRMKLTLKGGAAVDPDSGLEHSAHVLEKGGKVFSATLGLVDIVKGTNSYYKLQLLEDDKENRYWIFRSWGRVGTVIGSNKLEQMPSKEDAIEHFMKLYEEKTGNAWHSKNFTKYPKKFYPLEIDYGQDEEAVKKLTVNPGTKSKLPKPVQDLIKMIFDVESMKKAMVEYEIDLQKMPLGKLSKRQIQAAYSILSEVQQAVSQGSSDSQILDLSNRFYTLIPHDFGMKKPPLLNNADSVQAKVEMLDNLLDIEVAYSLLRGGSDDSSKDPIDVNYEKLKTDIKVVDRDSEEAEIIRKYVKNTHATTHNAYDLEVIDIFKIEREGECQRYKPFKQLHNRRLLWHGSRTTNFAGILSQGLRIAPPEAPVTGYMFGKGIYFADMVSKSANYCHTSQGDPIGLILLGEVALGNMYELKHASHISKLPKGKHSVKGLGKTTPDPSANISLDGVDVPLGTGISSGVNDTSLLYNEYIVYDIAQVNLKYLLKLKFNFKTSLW
T5 sequence (P09874 2-1014): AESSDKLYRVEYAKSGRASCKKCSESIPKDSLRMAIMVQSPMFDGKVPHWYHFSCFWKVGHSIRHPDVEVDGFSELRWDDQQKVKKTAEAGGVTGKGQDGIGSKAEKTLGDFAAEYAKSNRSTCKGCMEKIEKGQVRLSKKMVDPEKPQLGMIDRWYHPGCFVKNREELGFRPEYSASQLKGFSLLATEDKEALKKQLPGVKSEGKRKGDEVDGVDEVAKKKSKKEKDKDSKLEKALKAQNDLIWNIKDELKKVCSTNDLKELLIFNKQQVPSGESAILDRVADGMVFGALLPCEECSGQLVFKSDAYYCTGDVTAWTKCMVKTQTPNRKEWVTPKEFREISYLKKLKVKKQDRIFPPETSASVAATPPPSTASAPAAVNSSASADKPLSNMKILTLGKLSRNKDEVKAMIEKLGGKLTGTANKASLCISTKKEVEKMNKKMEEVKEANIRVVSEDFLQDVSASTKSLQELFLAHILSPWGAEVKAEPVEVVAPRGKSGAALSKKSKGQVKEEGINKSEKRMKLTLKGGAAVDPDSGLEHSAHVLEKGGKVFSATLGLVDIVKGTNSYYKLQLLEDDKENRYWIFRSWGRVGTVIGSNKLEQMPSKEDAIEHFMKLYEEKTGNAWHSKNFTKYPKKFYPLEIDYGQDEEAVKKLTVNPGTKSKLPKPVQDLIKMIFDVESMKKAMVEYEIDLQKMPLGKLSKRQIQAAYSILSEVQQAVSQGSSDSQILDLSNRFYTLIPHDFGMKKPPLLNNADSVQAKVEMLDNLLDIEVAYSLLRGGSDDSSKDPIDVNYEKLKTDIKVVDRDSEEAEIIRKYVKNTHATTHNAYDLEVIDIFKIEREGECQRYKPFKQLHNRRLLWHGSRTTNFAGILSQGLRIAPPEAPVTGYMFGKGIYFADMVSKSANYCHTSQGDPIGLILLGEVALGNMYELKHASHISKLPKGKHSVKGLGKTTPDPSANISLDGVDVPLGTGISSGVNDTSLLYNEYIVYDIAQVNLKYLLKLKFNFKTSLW
Sequence of PARP 2 (Q9UGN5 whole entry): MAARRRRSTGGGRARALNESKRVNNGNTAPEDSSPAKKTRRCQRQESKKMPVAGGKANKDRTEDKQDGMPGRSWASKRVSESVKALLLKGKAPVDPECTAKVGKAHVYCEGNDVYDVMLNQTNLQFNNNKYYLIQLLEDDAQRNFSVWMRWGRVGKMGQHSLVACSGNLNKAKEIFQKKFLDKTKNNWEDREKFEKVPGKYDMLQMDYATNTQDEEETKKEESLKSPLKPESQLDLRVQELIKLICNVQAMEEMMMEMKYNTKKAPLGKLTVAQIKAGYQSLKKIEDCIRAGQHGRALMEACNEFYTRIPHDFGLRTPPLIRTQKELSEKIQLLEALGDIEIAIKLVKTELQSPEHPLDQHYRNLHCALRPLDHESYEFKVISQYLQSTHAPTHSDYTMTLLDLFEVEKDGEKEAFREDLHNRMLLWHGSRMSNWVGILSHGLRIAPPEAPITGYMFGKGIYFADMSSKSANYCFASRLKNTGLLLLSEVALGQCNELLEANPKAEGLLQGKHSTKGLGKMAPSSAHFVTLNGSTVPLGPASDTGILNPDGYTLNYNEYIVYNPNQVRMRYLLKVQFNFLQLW

Row | Compound | IC50 [1] | IC50 [2] | IC50 [3] | IC50 [4] | IC50 [5] | IC50 [6] | Inhibition of H2O2-mediated PARP1 PARylation (PARP½ activity) in cells [7] | Dissociation of GFP-PARP11 from the nuclear envelope [8]
1 | CC#Cc1ccc2c(=O)[nH]c(CSc3ccc(C(=O)O)cc3)nc2c1C [ITK6, 4-(((8-methyl-4-oxo-7-(prop-1-yn-1-yl)-3,4-dihydroquinazolin-2-yl)methyl)thio) benzoic acid] | > 30 µM | > 3 µM | 0.099 ± 0.016 µM | – | – | – | – | –
2 | CC#Cc1ccc2c(=O)[nH]c(CSc3ncccn3)nc2c1C [ITK7, 8-methyl-7-(prop-1-yn-1-yl)-2-((pyrimidin-2-ylthio)methyl)quinazolin-4(3H)-one] | > 30 µM | > 3 µM | 0.014 ± 0.003 µM | > 30 µM | > 30 µM | > 3 µM | has no effect | causes GFP-PARP11 to dissociate from the nuclear envelope
